Laboratory results reported in patent US20090111778A1, “2-Keto-Oxazoles as Modulators of Fatty Acid Amide Hydrolase” (priority 2005, published 2009).
Counter-ions that a name gives are not always drawn.

Legend:
human FAAH = molecular target: T1, human FAAH (Homo sapiens, UniProt O00519); test: Assay Method 1: FAAH assay, hydrolysis of 3H-anandamide by homogenate of SK-N-MC cells transfected with human FAAH; format: biochemical; settings: human FAAH; T84 or transfected SK-N-MC cell homogenate; 3H-AEA tracer 80 nM; rt 1 h; pH 9; read-out: Assay 1 IC50
T1 construct: expressed in transfected cells
T1 sequence (O00519 1-579): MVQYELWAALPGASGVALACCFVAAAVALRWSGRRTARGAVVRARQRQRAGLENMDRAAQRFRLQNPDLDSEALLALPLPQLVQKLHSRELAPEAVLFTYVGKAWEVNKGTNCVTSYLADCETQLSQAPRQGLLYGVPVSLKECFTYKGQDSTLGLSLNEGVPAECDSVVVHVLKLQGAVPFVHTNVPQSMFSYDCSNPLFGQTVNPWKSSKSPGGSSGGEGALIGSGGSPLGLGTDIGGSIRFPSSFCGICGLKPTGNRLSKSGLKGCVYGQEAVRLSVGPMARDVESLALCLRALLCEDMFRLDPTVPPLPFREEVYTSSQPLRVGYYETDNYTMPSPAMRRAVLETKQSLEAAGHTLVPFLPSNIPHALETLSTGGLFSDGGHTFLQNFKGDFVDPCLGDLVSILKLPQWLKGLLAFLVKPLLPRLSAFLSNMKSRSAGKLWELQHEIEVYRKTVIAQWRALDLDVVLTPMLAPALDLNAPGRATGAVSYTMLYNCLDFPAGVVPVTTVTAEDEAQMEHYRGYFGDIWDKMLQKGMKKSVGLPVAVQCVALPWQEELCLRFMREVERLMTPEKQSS
Outline: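 Homogenate of SK-N-MC cells stably expressing human FAAH (G418-selected clones) incubated with compound and 80 nM [1-3H-ethanolamine]anandamide for 1 h at rt. Released 3H-ethanolamine separated from substrate by activated-charcoal filtration, then counted by scintillation.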

rat FAAH = molecular target: T2, rat FAAH (Rattus norvegicus, UniProt P97612); test: Assay Method 2: FAAH assay, hydrolysis of 3H-anandamide by homogenate of SK-N-MC cells transfected with rat FAAH; format: biochemical; settings: T84 or transfected SK-N-MC cell homogenate, 3H-AEA tracer 80 nM, rt 1 h, pH 9
T2 construct: expressed in transfected cells
T2 sequence (P97612 1-579): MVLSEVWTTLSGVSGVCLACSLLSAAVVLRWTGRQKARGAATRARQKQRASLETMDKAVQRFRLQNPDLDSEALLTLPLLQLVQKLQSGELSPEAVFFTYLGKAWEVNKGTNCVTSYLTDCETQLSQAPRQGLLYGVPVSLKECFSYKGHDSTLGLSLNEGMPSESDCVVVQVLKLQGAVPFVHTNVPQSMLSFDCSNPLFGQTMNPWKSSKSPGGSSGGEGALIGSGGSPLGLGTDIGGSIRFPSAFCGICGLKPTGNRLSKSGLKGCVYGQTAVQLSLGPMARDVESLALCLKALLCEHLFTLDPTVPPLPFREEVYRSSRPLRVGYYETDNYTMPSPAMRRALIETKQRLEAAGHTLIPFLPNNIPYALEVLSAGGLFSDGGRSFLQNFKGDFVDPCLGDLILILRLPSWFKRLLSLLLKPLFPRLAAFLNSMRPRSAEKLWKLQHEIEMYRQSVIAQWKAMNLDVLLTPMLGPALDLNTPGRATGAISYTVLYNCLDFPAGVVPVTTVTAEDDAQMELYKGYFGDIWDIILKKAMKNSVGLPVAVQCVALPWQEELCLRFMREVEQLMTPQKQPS
Outline: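 Rat FAAH activity from homogenate of G418-selected, electroporated SK-N-MC clones was measured as release of radiolabelled ethanolamine from 3H-anandamide. After 1 h at rt, charcoal filtration retained substrate, and scintillation counting of the flow-through gave the read-out.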

| Compound | IC50 (human FAAH) [µM] | IC50 (rat FAAH) [µM] |
| --- | --- | --- |
| CC(C)c1ccc(CN2CCC(CCCC(=O)c3ncco3)CC2)cn1 [Example 132, 4-[1-(6-Isopropyl-pyridin-3-ylmethyl)-piperidin-4-yl]-1-oxazol-2-yl-butan-1-one] | 0.052 | 0.95 |
| CC(C)Oc1cccc(CN2CCC(CCCC(=O)c3ncco3)CC2)c1 [Example 135, 4-[1-(3-Isopropoxy-benzyl)-piperidin-4-yl]-1-oxazol-2-yl-butan-1-one] | 0.005 | 0.009 |
| CC(C)c1cccc(CN2CCC(CCCC(=O)c3ncco3)CC2)c1 [Example 140, 4-[1-(3-Isopropyl-benzyl)-piperidin-4-yl]-1-oxazol-2-yl-butan-1-one] | 0.001 | 0.003 |
| O=C(CCCC1CCN(Cc2ccc(-n3ccnc3)cc2)CC1)c1ncco1 [Example 141, 4-[1-(4-Imidazol-1-yl-benzyl)-piperidin-4-yl]-1-oxazol-2-yl-butan-1-one] | 0.084 | 1.5 |
| CC(c1ccccc1)N1CCC(CCCC(=O)c2ncco2)CC1 (stereo not shown) [Example 142, 1-Oxazol-2-yl-4-[1-(1-phenyl-ethyl)-piperidin-4-yl]-butan-1-one] | 0.19 | 3 |
| CC(C)c1ccc(CN2CCC(CCCC(=O)c3ncc(C(=O)O)o3)CC2)cc1 [Example 144, 2-{4-[1-(4-Isopropyl-benzyl)-piperidin-4-yl]-butyryl}-oxazole-5-carboxylic acid trifluoroacetic acid salt] | 0.075 | 0.017 |
| COC(=O)c1cccc(-c2cnc(C(=O)CCCC3CCN(Cc4ccc(C(C)C)cc4)CC3)o2)n1 [Example 147, 6-(2-[4-{1-(4-Isopropyl-benzyl)-piperidin-4-yl]-butyryl}-oxazol-5-yl)-pyridine-2-carboxylic acid methyl ester] | 0.018 | 0.008 |
| O=C(O)c1cccc(-c2cnc(C(=O)CCCC3CCN(Cc4cccc(-c5ccccc5)c4)CC3)o2)n1 [Example 149, 6-{2-[4-(1-Biphenyl-3-ylmethyl-piperidin-4-yl)-butyryl]-oxazol-5-yl}-pyridine-2-carboxylic acid trifluoroacetic acid salt] | 0.009 | 0.002 |
| Cc1ccc(S(=O)(=O)N2CCC(CCCC(=O)c3ncc(-c4cccc(C(=O)O)n4)o3)CC2)cc1 [Example 151, 6-(2-{4-[1-(Toluene-4-sulfonyl)-piperidin-4-yl]-butyryl}-oxazol-5-yl)-pyridine-2-carboxylic acid trifluoroacetic acid salt] | 0.021 | 0.025 |

Continued, values first:

| IC50 (human FAAH) [µM] | IC50 (rat FAAH) [µM] | Compound |
| --- | --- | --- |
| 0.46 | 2 | O=C(CCCC1CCN(Cc2ccc(Cl)c(C(F)(F)F)c2)CC1)c1ncco1 [Example 133, 4-[1-(4-Chloro-3-trifluoromethyl-benzyl)-piperidin-4-yl]-1-oxazol-2-yl-butan-1-one] |
| 0.119 | 0.119 | O=C(CCCC1CCN(Cc2ccc(OC3CCCCC3)cc2)CC1)c1ncco1 [Example 134, 4-[1-(4-Cyclohexyloxy-benzyl)-piperidin-4-yl]-1-oxazol-2-yl-butan-1-one] |
| 0.001 | 0.002 | O=C(CCCC1CCN(Cc2cccc(OC3CCCCC3)c2)CC1)c1ncco1 [Example 136, 4-[1-(3-Cyclohexyloxy-benzyl)-piperidin-4-yl]-1-oxazol-2-yl-butan-1-one] |
| 0.01 | 0.38 | O=C(CCCC1CCN(Cc2ccc(C(F)(F)F)c(F)c2)CC1)c1ncco1 [Example 137, 4-[1-(3-Fluoro-4-trifluoromethyl-benzyl)-piperidin-4-yl]-1-oxazol-2-yl-butan-1-one] |
| 0.071 | 0.113 | O=C(CCCC1CCN(Cc2ccc(-c3ccccc3)c(F)c2)CC1)c1ncco1 [Example 138, 4-[1-(2-Fluoro-biphenyl-4-ylmethyl)-piperidin-4-yl]-1-oxazol-2-yl-butan-1-one] |
| 0.05 | 0.55 | CC(C)(C)c1ccc(CN2CCC(CCCC(=O)c3ncco3)CC2)cn1 [Example 139, 4-[1-(6-tert-Butyl-pyridin-3-ylmethyl)-piperidin-4-yl]-1-oxazol-2-yl-butan-1-one] |
| 0.014 | 0.003 | O=C(O)c1cnc(C(=O)CCCC2CCN(Cc3cccc(-c4ccccc4)c3)CC2)o1 [Example 143, 2-[4-(1-Biphenyl-3-ylmethyl-piperidin-4-yl)-butyryl]-oxazole-5-carboxylic acid trifluoroacetic acid salt] |
| 0.006 | 0.003 | O=C(O)c1cnc(C(=O)CCCC2CCN(Cc3cccc(Oc4ccccc4)c3)CC2)o1 [Example 145, 2-{4-[1-(3-Phenoxy-benzyl)-piperidin-4-yl]-butyryl}-oxazole-5-carboxylic acid trifluoroacetic acid salt] |
| 0.026 | 0.014 | Cc1ccc(S(=O)(=O)N2CCC(CCCC(=O)c3ncc(C(=O)O)o3)CC2)cc1 [Example 146] |
| 0.06 | 0.056 | CC(C)c1ccc(CN2CCC(CCCC(=O)c3ncc(-c4cccc(C(=O)O)n4)o3)CC2)cc1 [Example 148, 6-(2-{4-[1-(4-isopropyl-benzyl)-piperidin-4-yl]-butyryl}-oxazol-5-yl)-pyridine-2-carboxylic acid trifluoroacetic acid salt] |
| 0.016 | 0.007 | O=C(O)c1cccc(-c2cnc(C(=O)CCCC3CCN(Cc4cccc(OC5CCCCC5)c4)CC3)o2)n1 [Example 150, 6-(2-{4-[1-(3-Cyclohexyloxy-benzyl)-piperidin-4-yl]-butyryl}-oxazol-5-yl)-pyridine-2-carboxylic acid trifluoroacetic acid salt] |
